Test results taken from patent US4086139A, “Differential inactivation of amylase in amylase-protease mixtures” (GB Fermentation Industries Inc., priority 1976, dated 1978).
Values joined by “and” are separate entries in the source; they are usually repeats but may differ in a detail not shown here. Identical values can stand only once. Like-named read-outs stand apart in the source and are kept apart here.

Key:
Assay type in all cases: biochemical
amylase [1] = test: Amylase activity of B. subtilis Alkaline Protease composition after oxidizing agent treatment (Food Chemicals Codex method); details: for Amylase % loss: 75 min
protease [2] = biological target: protease (Bacillus subtilis, UniProt P04189); test: Protease activity of B. subtilis Alkaline Protease composition after oxidizing agent treatment (Food Chemicals Codex method)
amylase [3] = biological target: T1, amylase (Sus scrofa, UniProt P00690); test: Amylase activity of pancreatin after hypochlorite treatment
T1 construct: purchased Cudahy Co; host or cells: pancreas (pancreatin)
T1 sequence (P00690 16-511): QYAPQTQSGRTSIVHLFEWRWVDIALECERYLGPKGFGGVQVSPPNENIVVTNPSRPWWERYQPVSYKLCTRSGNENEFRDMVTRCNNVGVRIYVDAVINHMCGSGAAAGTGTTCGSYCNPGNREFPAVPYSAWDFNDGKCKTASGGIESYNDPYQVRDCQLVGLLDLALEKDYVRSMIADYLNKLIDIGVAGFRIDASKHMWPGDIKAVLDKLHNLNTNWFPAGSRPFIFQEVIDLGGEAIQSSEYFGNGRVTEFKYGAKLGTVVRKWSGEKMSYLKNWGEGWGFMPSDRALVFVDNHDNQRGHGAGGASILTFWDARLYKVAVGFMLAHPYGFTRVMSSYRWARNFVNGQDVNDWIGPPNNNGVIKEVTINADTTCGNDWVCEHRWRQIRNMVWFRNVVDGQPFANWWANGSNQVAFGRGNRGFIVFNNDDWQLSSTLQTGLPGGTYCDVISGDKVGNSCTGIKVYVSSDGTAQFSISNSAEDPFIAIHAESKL
Method: (§1) Pancreatin obtained from the Cudahy Co. was dissolved in isotonic salt solution (0.9% NaCl) to a concentration of 3.13 g. in 25 g. of solution. The solution pH was 6.5. Sodium hypochlorite solution (Clorox®) was added and the increments equalized by the addition of isotonic salt solution. The isotonic salt solution is used to avoid potency degradation of the solution upon standing. A similar lack of effect was noted when using an enzyme solution having a pH of 5.8 rather than 6.5. The enzyme mixture was treated for 11/4 hr. at room temperature and then assayed for protease and amylase activity. As in the prior Examples, the percent sodium hypochlorite is based on the solids content of the enzyme solution.
(§2) ^1, ^2 Amylase and protease activity were assayed by the same

protease [4] = test: Protease activity of pancreatin after hypochlorite treatment; set-up: Protease Activity: unit not given beside the values; details: for Protease Activity: pH 6.5, 0% control 27,300; for Protease % loss: pH 6.5, 75 min
Method: as §1, §2

amylase [5] = test: Amylase inactivation in dry enzyme mixture from Bacillus subtilis culture filtrate, spray dried product; details: 0.35% NaOCl based on weight of dry mixture, pH 6.2-6.6
Method: (§3) Twenty five pounds of an unstandarized, dry enzyme mixture, obtained by drying the clarified culture filtrate from the aerobic fermentation of Bacillus subtilis in an aqueous nutrient culture medium containing assimilable C, N and mineral salts, and which was determined to contain neutral protease, alkaline protease and amylase, is admixed with one hundred pounds of water at 70°-85° F. and agitated to facilitate solution. The solution is adjusted to pH 6.2-6.6 by slow addition of 20% aqueous NaOH solution. Then, 1.67 pounds of Clorox® (containing 5.25% NaOCl) is slowly admixed with the foregoing enzyme solution to thereby result in the addition of 0.0877 pounds or 0.35% NaOCl based on the weight of the dry mixture.

[6] = test system: protease (both neutral and alkaline); test: Protease retention in dry enzyme mixture from Bacillus subtilis culture filtrate, spray dried product; details: 0.35% NaOCl based on weight of dry mixture; pH 6.2-6.6; final spray dried material vs starting material
Method: as §3

[7] = Table II, treated solution, 0.3% based on weight of enzyme composition, final pH 6.5
[8] = Table III, spray-dried product, 0.3% based on weight of enzyme composition

Chain of protease (Bacillus subtilis, UniProt P04189) (P04189 107-381): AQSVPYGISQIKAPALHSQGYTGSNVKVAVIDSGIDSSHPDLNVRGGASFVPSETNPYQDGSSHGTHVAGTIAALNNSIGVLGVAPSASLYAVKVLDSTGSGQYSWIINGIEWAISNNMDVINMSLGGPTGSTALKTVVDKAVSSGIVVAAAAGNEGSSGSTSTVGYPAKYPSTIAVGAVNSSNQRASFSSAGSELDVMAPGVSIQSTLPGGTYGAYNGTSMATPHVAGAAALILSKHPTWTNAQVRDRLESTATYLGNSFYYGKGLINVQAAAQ

Compound: OO [hydrogen peroxide, reference compound]
- Amylase Activity (amylase [1]): 1250
- selective inactivation of amylase compared with hypochlorite (in words) (amylase [1]): substantially less effective in selectively inactivating amylase
- Amylase Activity (amylase [1]; pH 6.4): 236
- Protease Activity (protease [2]): 157,512
- Protease Activity (protease [2]; pH 6.4): 29,579

Compound: [Na+].[O-][Cl+2]([O-])[O-] [sodium chlorate, reference compound]
- effect on amylase activity (amylase [1]): Neither of these salts had any effect
- effect on protease activity (protease [2]): Neither of these salts had any effect

Compound: OCl [sodium hypochlorite]
- Amylase Activity (amylase [1]; 0.125% ion salt, pH 6.3, 0% control 583): 242
- Amylase % loss (amylase [1]; 0.125% ion salt, pH 6.3): 55%
- Amylase Activity (amylase [1]; 0.25% ion salt, pH 6.3, 0% control 583): 16
- Amylase % loss (amylase [1]; 0.25% ion salt, pH 6.3): 97%
- Amylase Activity (amylase [1]; 0.40% ion salt, pH 6.3, 0% control 583): 11
- Amylase % loss (amylase [1]; 0.40% ion salt, pH 6.3): 98%
- Amylase Activity (amylase [1]; [7]): 3
- Amylase Activity (amylase [1]; [8]): 15
- Protease Activity (protease [2]; 0.125% ion salt, pH 6.3, 0% control 25,900): 25,100
- Protease Activity (protease [2]; 0.25% ion salt, pH 6.3, 0% control 25,900): 25,900
- Protease Activity (protease [2]; 0.40% ion salt, pH 6.3, 0% control 25,900): 24,600
- inhibition at 0.125 % (protease [2]; 1.25 h, 0.125% ion salt, pH 6.3, read-out: Protease % loss): 3%
- inhibition at 0.25 % (protease [2]; 1.25 h, 0.25% ion salt, pH 6.3, read-out: Protease % loss): 0%
- inhibition at 0.4 % (protease [2]; 1.25 h, 0.40% ion salt, pH 6.3, read-out: Protease % loss): 5%
- Protease Activity (protease [2]; [7]): 27,365
- Protease Activity (protease [2]; [8]): 147,650
- Amylase Activity (amylase [3]; 1.8% on solids content, pH 6.5, room temperature, 0% control 1075): 467
- Amylase Activity (amylase [3]; 3.6% on solids content, pH 6.5, 0% control 1075): 31
- Amylase Activity (amylase [3]; 7.2% on solids content, pH 6.5, 0% control 1075): 3
- Amylase Activity (amylase [3]; 10.8% on solids content, pH 6.5, 0% control 1075): 0
- inhibition at 1.8 % (amylase [3]; 1.25 h, 1.8% on solids content, pH 6.5, read-out: Amylase % loss): 57%
- inhibition at 3.6 % (amylase [3]; 1.25 h, 3.6% on solids content, pH 6.5, read-out: Amylase % loss): 97%
- inhibition at 7.2 % (amylase [3]; 1.25 h, 7.2% on solids content, pH 6.5, read-out: Amylase % loss): 100%
- inhibition at 10.8 % (amylase [3]; 1.25 h, 10.8% on solids content, pH 6.5, read-out: Amylase % loss): 100%
- Protease Activity (protease [4]; 1.8% on solids content): 28,400
- Protease % loss (protease [4]; 1.8% on solids content): 0%
- Protease Activity (protease [4]; 3.6% on solids content): 24,800
- Protease % loss (protease [4]; 3.6% on solids content): 9%
- Protease Activity (protease [4]; 7.2% on solids content): 19,100
- Protease % loss (protease [4]; 7.2% on solids content): 30%
- Protease Activity (protease [4]; 10.8% on solids content): 11,200
- Protease % loss (protease [4]; 10.8% on solids content): 59%
- amylase destruction (in words) (amylase [5]): immediately destroys the amylase
- amylase inactivated (amylase [5]; final spray dried material vs starting material): about 98%
- protease retained in the final product [6]: greater than 90%

Compound: [O-][Cl+3]([O-])([O-])O [sodium perchlorate, reference compound]
- effect on amylase activity (amylase [1]): Neither of these salts had any effect
- effect on protease activity (protease [2]): Neither of these salts had any effect

Compound: sodium chlorite
- Amylase % loss (amylase [1]; b. subtilis amylase, pH 6.3, 75 min): 99%
- Protease % loss (protease [2]; b. subtilis alkaline protease, pH 6.3, 75 min, 75 min): 0% and 1% and 8%
- Protease Activity (protease [2]; pH 6.3): 40,800 and 39,900 and 37,200
